Key:
[1] = molecular target: CDK9/Cyclin K (Homo sapiens) (UniProt P50750+O75909); assay: Inhibition of CDK9/cyclin K (unknown origin) at 10 uM by ADP-Glo assay relative to control; format: protein-complex assay
[2] = Antiproliferative activity against HEK293 cells assessed as cell growth inhibition incubated for 48 hrs by MTT assay; format: toxicity, cell-based; conditions: human
[3] = molecular target: CDK9/cyclin T1 (Homo sapiens, UniProt P50750); assay: Inhibition of CDK9/cyclin T1 (unknown origin) by ADP-Glo assay; format: protein-complex assay
[4] = molecular target: CDK9/Cyclin K (Homo sapiens, UniProt P50750); assay: Inhibition of CDK9/cyclin K (unknown origin) by ADP-Glo assay; format: protein-complex assay
[5] = Antiproliferative activity against HEK293 cells assessed as cell growth inhibition at 10 uM incubated for 48 hrs by MTT assay relative to control; format: toxicity, cell-based; conditions: human
[6] = test system: HCT-116; assay: Antiproliferative activity against human HCT-116 cells assessed as cell growth inhibition at 10 uM incubated for 48 hrs by MTT assay relative to control; format: functional
[7] = molecular target: Cyclin-dependent kinase 7/ cyclin H (Homo sapiens, UniProt P50613); assay: Inhibition of CDK7/cyclin H (unknown origin) by ADP-Glo assay; format: protein-complex assay
[8] = test system: MIA PaCa-2; assay: Antiproliferative activity against human MIA PaCa-2 cells assessed as cell growth inhibition incubated for 48 hrs by MTT assay; format: functional
[9] = test system: HCT-116; assay: Antiproliferative activity against human HCT-116 cells assessed as cell growth inhibition incubated for 48 hrs by MTT assay; format: functional
[10] = molecular target: Cyclin-dependent kinase 7/ cyclin H (Homo sapiens) (UniProt P51946+P50613); assay: Inhibition of CDK7/cyclin H (unknown origin) at 10 uM by ADP-Glo assay relative to control; format: protein-complex assay
[11] = test system: MIA PaCa-2; assay: Antiproliferative activity against human MIA PaCa-2 cells assessed as cell growth inhibition at 10 uM incubated for 48 hrs by MTT assay relative to control; format: functional
[12] = AUC(0 to t) in BALB/c mouse at 2.5 mg/kg, iv measured for 6 hrs by LC-MS/MS analysis; format: ADME, organism-based; conditions: in vivo
[13] = test system: MIA PaCa-2; assay: Induction of apoptosis in human MIA PaCa-2 cells assessed as chromatin condensation incubated for 48 hrs by DAPI staining based analysis; format: functional, cell-based
[14] = Volume of distribution in BALB/c mouse at 2.5 mg/kg, iv measured for 6 hrs by LC-MS/MS analysis; format: ADME, organism-based; conditions: in vivo
[15] = Cmax in BALB/c mouse at 30 mg/kg, po measured for 6 hrs by LC-MS/MS analysis; format: ADME, organism-based; conditions: in vivo
[16] = C0 in BALB/c mouse at 2.5 mg/kg, iv measured for 6 hrs by LC-MS/MS analysis; format: ADME, organism-based; conditions: in vivo
[17] = Metabolic stability in human liver microsomes assessed as compound remaining at 10 uM measured after 30 mins in presence of NADPH by HPLC analysis; format: ADME, Microsome; conditions: 0.5 h
[18] = Metabolic stability in mouse liver microsomes assessed as compound remaining at 10 uM measured after 30 mins in presence of NADPH by HPLC analysis; format: ADME, Microsome; conditions: 0.5 h
[19] = test system: MIA PaCa-2; assay: Induction of intracellular ROS generation in human MIA PaCa-2 cells incubated for 48 hrs by DCFDA dye based analysis; format: functional, cell-based
[20] = AUC(0 to infinity) in BALB/c mouse at 2.5 mg/kg, iv measured for 6 hrs by LC-MS/MS analysis; format: ADME, organism-based; conditions: in vivo
[21] = Clearance in BALB/c mouse at 30 mg/kg, po measured for 6 hrs by LC-MS/MS analysis; format: ADME, organism-based; conditions: in vivo
[22] = Half life in BALB/c mouse at 2.5 mg/kg, iv measured for 6 hrs by LC-MS/MS analysis; format: ADME, organism-based; conditions: in vivo
[23] = test system: MIA PaCa-2; assay: Induction of apoptosis in human MIA PaCa-2 cells assessed as apoptotic body formation incubated for 48 hrs by DAPI staining based analysis; format: functional, cell-based
[24] = Volume of distribution in BALB/c mouse at 30 mg/kg, po measured for 6 hrs by LC-MS/MS analysis; format: ADME, organism-based; conditions: in vivo
[25] = test system: MIA PaCa-2; assay: Induction of mitochondrial membrane potential loss in human MIA PaCa-2 cells incubated for 48 hrs by Rhodamine-123 dye based analysis; format: functional, cell-based
[26] = AUC(0 to t) in BALB/c mouse at 30 mg/kg, po measured for 6 hrs by LC-MS/MS analysis; format: ADME, organism-based; conditions: in vivo
[27] = Half life in BALB/c mouse at 30 mg/kg, po measured for 6 hrs by LC-MS/MS analysis; format: ADME, organism-based; conditions: in vivo
[28] = Clearance in BALB/c mouse at 2.5 mg/kg, iv measured for 6 hrs by LC-MS/MS analysis; format: ADME, organism-based; conditions: in vivo
[29] = Tmax in BALB/c mouse at 30 mg/kg, po measured for 6 hrs by LC-MS/MS analysis; format: ADME, organism-based; conditions: in vivo
[30] = AUC(0 to infinity) in BALB/c mouse at 30 mg/kg, po measured for 6 hrs by LC-MS/MS analysis; format: ADME, organism-based; conditions: in vivo

Sequence of CDK9/Cyclin K (P50750 whole entry): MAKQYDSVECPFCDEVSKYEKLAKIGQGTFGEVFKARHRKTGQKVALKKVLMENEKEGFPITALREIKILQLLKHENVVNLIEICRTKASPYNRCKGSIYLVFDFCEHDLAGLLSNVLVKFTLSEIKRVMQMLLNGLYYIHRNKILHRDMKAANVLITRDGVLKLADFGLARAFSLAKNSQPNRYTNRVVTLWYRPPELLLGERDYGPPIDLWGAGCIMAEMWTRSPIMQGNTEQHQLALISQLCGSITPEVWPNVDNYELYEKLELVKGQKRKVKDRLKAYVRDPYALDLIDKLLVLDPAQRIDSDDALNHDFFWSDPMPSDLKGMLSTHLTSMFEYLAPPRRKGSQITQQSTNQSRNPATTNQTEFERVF
Sequence of CDK9/Cyclin K (O75909 whole entry, further chain): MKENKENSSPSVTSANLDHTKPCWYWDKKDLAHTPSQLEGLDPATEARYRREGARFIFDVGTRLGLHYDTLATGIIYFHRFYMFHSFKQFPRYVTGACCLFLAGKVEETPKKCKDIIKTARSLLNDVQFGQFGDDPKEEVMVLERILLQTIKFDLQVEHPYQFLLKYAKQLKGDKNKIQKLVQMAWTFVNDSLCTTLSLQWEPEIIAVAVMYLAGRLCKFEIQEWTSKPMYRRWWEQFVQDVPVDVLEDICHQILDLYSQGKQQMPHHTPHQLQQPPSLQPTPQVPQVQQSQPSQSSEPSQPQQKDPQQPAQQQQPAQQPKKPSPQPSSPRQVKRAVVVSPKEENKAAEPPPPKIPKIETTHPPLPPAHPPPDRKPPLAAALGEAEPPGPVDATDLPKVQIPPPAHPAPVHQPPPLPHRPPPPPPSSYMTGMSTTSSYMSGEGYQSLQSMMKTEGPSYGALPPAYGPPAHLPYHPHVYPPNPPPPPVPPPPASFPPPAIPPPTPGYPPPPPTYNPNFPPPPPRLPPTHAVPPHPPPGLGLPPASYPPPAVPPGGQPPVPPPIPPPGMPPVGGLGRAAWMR
Sequence of Cyclin-dependent kinase 7/ cyclin H (P51946 whole entry): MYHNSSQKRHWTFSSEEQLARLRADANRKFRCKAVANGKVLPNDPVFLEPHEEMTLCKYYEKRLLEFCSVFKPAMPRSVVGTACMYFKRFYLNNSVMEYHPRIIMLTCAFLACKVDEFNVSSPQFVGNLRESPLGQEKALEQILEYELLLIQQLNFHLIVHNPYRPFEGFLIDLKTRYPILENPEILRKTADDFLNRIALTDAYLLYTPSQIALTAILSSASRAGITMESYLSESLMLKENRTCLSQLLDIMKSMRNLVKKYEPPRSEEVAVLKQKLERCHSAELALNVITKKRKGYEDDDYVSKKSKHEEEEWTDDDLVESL
Sequence of Cyclin-dependent kinase 7/ cyclin H (P50613 whole entry): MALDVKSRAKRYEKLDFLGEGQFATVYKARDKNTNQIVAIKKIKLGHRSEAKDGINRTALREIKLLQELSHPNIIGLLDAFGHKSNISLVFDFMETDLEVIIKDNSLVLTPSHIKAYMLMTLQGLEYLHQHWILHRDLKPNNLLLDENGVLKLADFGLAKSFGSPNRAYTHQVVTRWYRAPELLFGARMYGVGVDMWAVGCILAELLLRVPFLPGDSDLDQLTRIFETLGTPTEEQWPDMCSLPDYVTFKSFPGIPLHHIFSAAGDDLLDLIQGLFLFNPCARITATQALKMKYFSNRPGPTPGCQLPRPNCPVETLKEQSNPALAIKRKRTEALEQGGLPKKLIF
Sequence of CDK9/cyclin T1 (O60563 whole entry): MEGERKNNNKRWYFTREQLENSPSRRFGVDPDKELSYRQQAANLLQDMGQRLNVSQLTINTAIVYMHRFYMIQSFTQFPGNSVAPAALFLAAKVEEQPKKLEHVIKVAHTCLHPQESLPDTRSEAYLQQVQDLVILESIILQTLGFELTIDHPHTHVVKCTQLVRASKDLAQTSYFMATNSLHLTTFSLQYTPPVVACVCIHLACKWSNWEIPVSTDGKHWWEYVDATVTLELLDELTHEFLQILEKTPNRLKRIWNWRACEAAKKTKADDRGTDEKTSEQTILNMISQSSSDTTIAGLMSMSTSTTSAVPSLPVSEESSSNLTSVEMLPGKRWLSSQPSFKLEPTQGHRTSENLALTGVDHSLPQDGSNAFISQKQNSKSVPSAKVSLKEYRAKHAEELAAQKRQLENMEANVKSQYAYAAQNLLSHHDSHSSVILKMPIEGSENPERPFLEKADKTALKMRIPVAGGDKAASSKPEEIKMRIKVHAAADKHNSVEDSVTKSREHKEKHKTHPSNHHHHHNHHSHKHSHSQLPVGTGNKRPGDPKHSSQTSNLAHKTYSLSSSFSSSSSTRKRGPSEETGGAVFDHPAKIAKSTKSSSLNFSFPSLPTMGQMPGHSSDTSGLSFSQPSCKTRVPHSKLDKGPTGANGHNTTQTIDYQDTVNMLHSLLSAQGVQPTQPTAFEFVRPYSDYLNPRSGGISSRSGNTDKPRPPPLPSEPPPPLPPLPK
Sequence of CDK9/cyclin T1 (P50750 whole entry): as the sequence (P50750 whole entry) above

Row | SMILES | inhibition [1] [%] | GI50 at 48 h [2] [µM] | IC50 [3] [µM] | IC50 [4] [µM] | inhibition at 48 h, 10 µM [5] [%] | inhibition at 10 µM [6] [%] | IC50 [7] [µM] | GI50 [8] [µM] | GI50 [9] [µM] | inhibition [10] [%] | inhibition at 10 µM [11] [%] | also measured
1 | C[N+]1([O-])CC[C@H](c2c(O)cc(O)c3c(=O)cc(/C=C/c4ccccc4F)oc23)[C@H](O)C1 (stereo partly drawn) | 58.9 | > 100 | 0.676 | 8.47 | 18.8 | 18.2 | > 10 | 5.58 | > 10 | 15.9 | 31.8 | 
2 | CN1CC[C@H](c2c(O)cc(O)c3c(=O)cc(/C=C/c4c(Cl)cccc4Cl)oc23)[C@H](O)C1 | 83.6 | > 100 | 0.003 | 0.32 | 20.6 | 49.5 |  | 1.94 | 9.32 | 81.6 | 82.5 | 
3 | COc1cc(O)c2c(=O)cc(/C=C/c3ccc(F)c(Cl)c3)oc2c1[C@H]1CC[N+](C)([O-])C[C@H]1O (stereo partly drawn) | 28.4 |  |  |  | 6.9 | 33.7 |  |  |  | 56.7 | 27.8 | 
4 | C[N+]1([O-])CC[C@H](c2c(O)cc(O)c3c(=O)cc(/C=C/c4ccccc4I)oc23)[C@H](O)C1 (stereo partly drawn) | 64.8 |  |  |  | 13.4 | 38.3 |  |  |  | 89.6 | 38.1 | 
5 | C[N+]1([O-])CC[C@H](c2c(O)cc(O)c3c(=O)cc(/C=C/c4ccccc4Cl)oc23)[C@H](O)C1 (stereo partly drawn) | 61.7 | 90.3 | 0.166 | 2.81 | 29.7 | 67 | 1.46 | 6.07 | 5.1 | 62.7 | 56.3 | AUC(0-t) at 6 h [12]: 341 ng·h/mL; Activity [13]: Dose-Dependent Effect; Vd [14]: 3 L/kg; Cmax [15]: 731 ng/mL; C0 at 6 h [16]: 5720 ng/mL; Stability [17]: Stable; Stability [18]: Stable; Activity [19]: Dose-Dependent Effect; AUC(0-inf) [20]: 346 ng·h/mL; CL/F [21]: 953 mL/min/kg; half-life [22]: 17.4 min; Activity [23]: Dose-Dependent Effect; Vd [24]: 32.4 L/kg; Activity [25]: Dose-Dependent Effect; AUC(0-t) at 6 h [26]: 510 ng·h/mL; half-life [27]: 102 min; clearance [28]: 120 mL/min/kg; Tmax [29]: 4.98 min; AUC(0-inf) [30]: 525 ng·h/mL
6 | CCOc1cc(O)c2c(=O)cc(/C=C/c3c(F)cccc3Cl)oc2c1[C@H]1CC[N+](C)([O-])C[C@H]1O (stereo partly drawn) |  | > 100 | 0.45 |  | 22.8 | 34.7 | > 10 | 8.03 | > 10 | 37.4 | 52.8 | 
7 | C[N+]1([O-])CC[C@H](c2c(O)cc(O)c3c(=O)cc(/C=C/c4cc(Cl)cc(Cl)c4)oc23)[C@H](O)C1 (stereo partly drawn) | 28 |  |  |  | 14.8 | 5.7 |  |  |  | 25.6 | 11.3 | 
8 | Cc1cc(=O)c2c(O)cc(O)c([C@H]3CC[N+](C)([O-])C[C@H]3O)c2o1 (stereo partly drawn) | 37.9 | > 100 | 7.65 | > 10 | 14.3 | 34 | > 10 | > 10 | > 10 | 12.8 | 18.8 | 
9 | CC(=O)O[C@H]1C(=O)[C@@]2(C)[C@H]([C@H](OC(=O)c3ccccc3)[C@]3(O)C[C@H](OC(=O)[C@H](O)[C@@H](NC(=O)c4ccccc4)c4ccccc4)C(C)=C1C3(C)C)[C@]1(OC(C)=O)CO[C@@H]1C[C@@H]2O |  |  |  |  |  |  |  |  |  |  |  | Activity [13]: Dose-Dependent Effect; Activity [23]: Dose-Dependent Effect; Activity [25]: Dose-Dependent Effect
10 | C[N+]1([O-])CC[C@H](c2c(O)cc(O)c3c(=O)cc(/C=C/c4c(F)cccc4Cl)oc23)[C@H](O)C1 (stereo partly drawn) |  | > 100 | 1.43 |  | 19.3 | 61.7 | 5.14 | 7.05 | 4.56 | 48.5 | 56.1 | 
11 | C[N+]1([O-])CC[C@H](c2c(O)cc(O)c3c(=O)cc(/C=C/c4ccc(Cl)cc4Br)oc23)[C@H](O)C1 (stereo partly drawn) | 66.2 |  |  |  | 21.4 | 57.1 |  |  |  | 65.4 | 58.4 | 
12 | COc1cc(O)c2c(=O)cc(/C=C/c3c(F)ccc(Cl)c3F)oc2c1[C@H]1CC[N+](C)([O-])C[C@H]1OC (stereo partly drawn) | 17 |  |  |  | 15.5 | 38.1 |  |  |  | 50.3 | 39 | 
13 | C[N+]1([O-])CC[C@H](c2c(O)cc(O)c3c(=O)cc(/C=C/c4ccc(Cl)cc4Cl)oc23)[C@H](O)C1 (stereo partly drawn) | 43.2 |  |  |  | 18.2 | 54 |  |  |  | 49.6 | 41.2 | 
14 | C[N+]1([O-])CC[C@H](c2c(O)cc(O)c3c(=O)cc(/C=C/c4cccc(Cl)c4)oc23)[C@H](O)C1 (stereo partly drawn) | 37.3 | > 100 | 3.71 | > 10 | 9.2 | 27.4 | > 10 | > 10 | > 10 | 19.4 | 36.3 | 
15 | C[N+]1([O-])CC[C@H](c2c(O)cc(O)c3c(=O)cc(/C=C/c4ccccc4Br)oc23)[C@H](O)C1 (stereo partly drawn) | 60.2 | 95.2 | 0.231 | 2.41 | 17.2 | 36.3 | 1.62 | 5.35 | 9.32 | 49.4 | 70.3 | 
16 | COc1cc(O)c2c(=O)cc(/C=C/c3c(F)ccc(F)c3Cl)oc2c1[C@H]1CC[N+](C)([O-])C[C@H]1O (stereo partly drawn) | 41.8 |  |  |  | 20 | 57.7 |  |  |  | 51.4 | 36.4 | 
17 | C[N+]1([O-])CC[C@H](c2c(O)cc(O)c3c(=O)cc(/C=C/c4ccccc4)oc23)[C@H](O)C1 (stereo partly drawn) | 44.2 | > 100 | 1.99 | > 10 | 8.2 | 20.5 | > 10 | > 10 | > 10 | 41.7 | 21.5 | 
18 | COc1cc(O)c2c(=O)cc(/C=C/c3cccc(Cl)c3F)oc2c1[C@H]1CC[N+](C)([O-])C[C@H]1O (stereo partly drawn) | 59.6 |  |  |  | 17.2 | 62.1 |  |  |  | 47.5 | 52.7 | 
19 | C[N+]1([O-])CC[C@H](c2c(O)cc(O)c3c(=O)cc(/C=C/c4ccc(Cl)cc4)oc23)[C@H](O)C1 (stereo partly drawn) | 35.8 | 46.3 | 3.85 | > 10 | 9.1 | 39.3 | > 10 | > 10 | > 10 | 18.2 | 44.2 | 
20 | C[N+]1([O-])CC[C@H](c2c(O)cc(O)c3c(=O)cc(/C=C/c4c(Cl)cccc4Cl)oc23)[C@H](O)C1 (stereo partly drawn) | 65.8 | > 100 | 0.399 | 3.44 | 24.1 | 72.3 | 6.44 | 9.7 | 5.44 | 47.5 | 53.6 | 

Source: ChEMBL document CHEMBL5620385, “Orally bioavailable styryl derivative of rohitukine-N-oxide inhibits CDK9/T1 and the growth of pancreatic cancer cells” (Eur J Med Chem, 2023)
